Laboratory results from patent US9957264B2 (Merck Sharp & Dohme Corp., priority 2013, dated 2018).

Key:
[1] = biological target: JAK1 (recombinant purified GST-tagged catalytic domain) (Homo sapiens (Human), UniProt P23458); assay: Jak Biochemical HTRF Assay (JAK1); details: [ATP] 31.8 μM
In short: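 Kinase reaction with biotinylated peptide substrate was started by ATP addition and run 120 min at room temperature, then quenched with EDTA stop buffer containing streptavidin-Dylight 650 and Eu-pY20 antibody. HTRF read 60 min later (665/615 nm ratio); percent inhibition vs log concentration fit to 4-parameter curve for IC50.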

[2] = biological target: JAK2 (recombinant purified GST-tagged catalytic domain) (Homo sapiens (Human), UniProt O60674); assay: Jak Biochemical HTRF Assay (JAK2); details: [ATP] 8.5 μM
Sequence of JAK2 (recombinant purified GST-tagged catalytic domain) (O60674 849-1124): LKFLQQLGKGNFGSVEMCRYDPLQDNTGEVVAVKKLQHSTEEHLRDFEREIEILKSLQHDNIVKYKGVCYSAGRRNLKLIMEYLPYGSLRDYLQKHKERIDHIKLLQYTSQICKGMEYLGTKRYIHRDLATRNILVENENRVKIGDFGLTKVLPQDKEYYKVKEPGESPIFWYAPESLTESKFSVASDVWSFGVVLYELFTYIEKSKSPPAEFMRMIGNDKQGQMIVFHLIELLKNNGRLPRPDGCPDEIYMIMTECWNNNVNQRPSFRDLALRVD

Sequence of JAK1 (recombinant purified GST-tagged catalytic domain) (P23458 875-1153): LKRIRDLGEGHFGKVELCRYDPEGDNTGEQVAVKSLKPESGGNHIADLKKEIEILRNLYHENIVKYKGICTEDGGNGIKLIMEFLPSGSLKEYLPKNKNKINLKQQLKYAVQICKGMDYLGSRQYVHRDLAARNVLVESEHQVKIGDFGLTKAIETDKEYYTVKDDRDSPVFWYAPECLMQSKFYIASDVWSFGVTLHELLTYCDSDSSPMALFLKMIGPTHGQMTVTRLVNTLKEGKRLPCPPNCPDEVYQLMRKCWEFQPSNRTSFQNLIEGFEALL

SMILES | IC50 [1] [nM] | IC50 [2] [nM]
CN(C)S(=O)(=O)c1ccc(Nc2nn(C3(CC#N)CCN(C(=O)CCC#N)CC3)c3cc[nH]c(=O)c23)cc1 [Example 9-22, 4-({1-[4-(cyanomethyl)-1-(3-cyanopropanoyl)piperidin-4-yl]-4-oxo-4,5-dihydro-1H-pyrazolo[4,3-c]pyridin-3-yl}amino)-N,N-dimethylbenzenesulfonamide] | 0.09 | 0.21
CN(C)S(=O)(=O)c1ccc(Nc2nn(C3(CC#N)CCN(C(=O)CC(C)(C)C)CC3)c3cc[nH]c(=O)c23)cc1 [Example 9-23, 4-({1-[4-(cyanomethyl)-1-(3,3-dimethylbutanoyl)piperidin-4-yl]-4-oxo-4,5-dihydro-1H-pyrazolo[4,3-c]pyridin-3-yl}amino)-N,N-dimethylbenzenesulfonamide] | 0.14 | 1.32
CSC(C)C(=O)N1CCC(CC#N)(n2nc(Nc3ccc(S(=O)(=O)N(C)C)cc3)c3c(=O)[nH]ccc32)CC1 (stereo not drawn) [Example 9-24, 4-((1-(4-(cyanomethyl)-1-(2-(methylthio)propanoyl)piperidin-4-yl)-4-oxo-4,5-dihydro-1H-pyrazolo[4,3-c]pyridin-3-yl)amino)-N,N-dimethylbenzenesulfonamide] | 0.14 | 0.36
CN(C)S(=O)(=O)c1ccc(Nc2nn(C3(CC#N)CCN(C(=O)CC#N)CC3)c3cc[nH]c(=O)c23)cc1 [Example 9-25, 4-((1-(1-(2-cyanoacetyl)-4-(cyanomethyl)piperidin-4-yl)-4-oxo-4,5-dihydro-1H-pyrazolo[4,3-c]pyridin-3-yl)amino)-N,N-dimethylbenzenesulfonamide] | 0.1 | 0.16
CN(C)S(=O)(=O)c1ccc(Nc2nn(C3(CC#N)CCN(C(=O)Oc4ccccc4)CC3)c3cc[nH]c(=O)c23)cc1 [Example 10-2, phenyl 4-(cyanomethyl)-4-(3-((4-(N,N-dimethylsulfamoyl)phenyl)amino)-4-oxo-4,5-dihydro-1H-pyrazolo[4,3-c]pyridin-1-yl)piperidine-1-carboxylate] | 0.19 | 0.86
CN(C)S(=O)(=O)c1ccc(Nc2nn(C3(CC#N)CCN(C(=O)Oc4ccc(F)cc4)CC3)c3cc[nH]c(=O)c23)cc1 [Example 10-3, 4-fluorophenyl 4-(cyanomethyl)-4-(3-((4-(N,N-dimethylsulfamoyl)phenyl)amino)-4-oxo-4,5-dihydro-1H-pyrazolo[4,3-c]pyridin-1-yl)piperidine-1-carboxylate] | 0.27 | 0.97
CN(C)S(=O)(=O)c1ccc(Nc2nn(C3(CC#N)CCN(C(=O)OCC(C)(C)C)CC3)c3cc[nH]c(=O)c23)cc1 [Example 10-4, neopentyl 4-(cyanomethyl)-4-(3-((4-(N,N-dimethylsulfamoyl)phenyl)amino)-4-oxo-4,5-dihydro-1H-pyrazolo[4,3-c]pyridin-1-yl)piperidine-1-carboxylate] | 0.45 | 3.08
CCOC(=O)N1CCC(CC#N)(n2nc(Nc3ccc(S(=O)(=O)N(C)C)cc3)c3c(=O)[nH]ccc32)CC1 [Example 10-5, ethyl 4-(cyanomethyl)-4-(3-((4-(N,N-dimethylsulfamoyl)phenyl)amino)-4-oxo-4,5-dihydro-1H-pyrazolo[4,3-c]pyridin-1-yl)piperidine-1-carboxylate] | 0.12 | 0.29
CC(C)OC(=O)N1CCC(CC#N)(n2nc(Nc3ccc(S(=O)(=O)N(C)C)cc3)c3c(=O)[nH]ccc32)CC1 [Example 10-6, isopropyl 4-(cyanomethyl)-4-(3-((4-(N,N-dimethylsulfamoyl)phenyl)amino)-4-oxo-4,5-dihydro-1H-pyrazolo[4,3-c]pyridin-1-yl)piperidine-1-carboxylate] | 0.12 | 0.27
CSCCOC(=O)N1CCC(CC#N)(n2nc(Nc3ccc(S(=O)(=O)N(C)C)cc3)c3c(=O)[nH]ccc32)CC1 [Example 11-3, 2-(methylthio)ethyl 4-(cyanomethyl)-4-(3-((4-(N,N-dimethylsulfamoyl)phenyl)amino)-4-oxo-4,5-dihydro-1H-pyrazolo[4,3-c]pyridin-1-yl)piperidine-1-carboxylate] | 0.31 | 1.09
CN(C)S(=O)(=O)c1ccc(Nc2nn(C3(CC#N)CCN(C(=O)OC4CCSCC4)CC3)c3cc[nH]c(=O)c23)cc1 [Example 11-4, tetrahydro-2H-thiopyran-4-yl 4-(cyanomethyl)-4-(3-((4-(N,N-dimethylsulfamoyl)phenyl)amino)-4-oxo-4,5-dihydro-1H-pyrazolo[4,3-c]pyridin-1-yl)piperidine-1-carboxylate] | 0.27 | 1.45
COCC(C)OC(=O)N1CCC(CC#N)(n2nc(Nc3ccc(S(=O)(=O)N(C)C)cc3)c3c(=O)[nH]ccc32)CC1 (stereo not drawn) [Example 11-5, 1-methoxypropan-2-yl 4-(cyanomethyl)-4-(3-((4-(N,N-dimethylsulfamoyl)phenyl)amino)-4-oxo-4,5-dihydro-1H-pyrazolo[4,3-c]pyridin-1-yl)piperidine-1-carboxylate] | 0.27 | 0.61
CN(C)S(=O)(=O)c1ccc(Nc2nn(C3(CC#N)CCN(C(=O)O[C@@H]4CCOC4)CC3)c3cc[nH]c(=O)c23)cc1 [Example 11-6, (R)-tetrahydrofuran-3-yl 4-(cyanomethyl)-4-(3-((4-(N,N-dimethylsulfamoyl)phenyl)amino)-4-oxo-4,5-dihydro-1H-pyrazolo[4,3-c]pyridin-1-yl)piperidine-1-carboxylate] | 0.12 | 0.47
CC(OC(=O)N1CCC(CC#N)(n2nc(Nc3ccc(S(=O)(=O)N(C)C)cc3)c3c(=O)[nH]ccc32)CC1)c1ccccn1 (stereo not drawn) [Example 11-9, 1-(pyridin-2-yl)ethyl 4-(cyanomethyl)-4-(3-((4-(N,N-dimethylsulfamoyl)phenyl)amino)-4-oxo-4,5-dihydro-1H-pyrazolo[4,3-c]pyridin-1-yl)piperidine-1-carboxylate] | 0.41 | 1.37
CC(C#N)OC(=O)N1CCC(CC#N)(n2nc(Nc3ccc(S(=O)(=O)N(C)C)cc3)c3c(=O)[nH]ccc32)CC1 (stereo not drawn) [Example 11-10, 1-cyanoethyl 4-(cyanomethyl)-4-(3-((4-(N,N-dimethylsulfamoyl)phenyl)amino)-4-oxo-4,5-dihydro-1H-pyrazolo[4,3-c]pyridin-1-yl)piperidine-1-carboxylate] | 0.06 | 0.1
CN(C)S(=O)(=O)c1ccc(Nc2nn(C3(CC#N)CCN(C(=O)O[C@H]4CCOC4)CC3)c3cc[nH]c(=O)c23)cc1 [Example 11-11, (S)-tetrahydrofuran-3-yl 4-(cyanomethyl)-4-(3-((4-(N,N-dimethylsulfamoyl)phenyl)amino)-4-oxo-4,5-dihydro-1H-pyrazolo[4,3-c]pyridin-1-yl)piperidine-1-carboxylate] | 0.16 | 0.91
CN(C)S(=O)(=O)c1ccc(Nc2nn(C3(CC#N)CCN(C(=O)OCC(F)(F)F)CC3)c3cc[nH]c(=O)c23)cc1 [Example 12, 2,2,2-trifluoroethyl 4-(cyanomethyl)-4-(3-((4-(N,N-dimethylsulfamoyl)phenyl)amino)-4-oxo-4,5-dihydro-1H-pyrazolo[4,3-c]pyridin-1-yl)piperidine-1-carboxylate] | 0.11 | 0.24
CC(C)OC(=O)N1CCC(CC#N)(n2nc(Nc3ccnc(F)c3)c3c(=O)[nH]ccc32)CC1 [Example 13-1, isopropyl-4-(cyanomethyl)-4-(3-(2-fluoropyridin-4-ylamino)-4-oxo-4,5-dihydropyrazolo[4,3-c]pyridin-1-yl)piperidine-1-carboxylate] | 0.22 | 3.82
COC(=O)N1CCC(CC#N)(n2nc(Nc3ccnc(F)c3)c3c(=O)[nH]ccc32)CC1 [Example 13-2, methyl 4-(cyanomethyl)-4-(3-(2-fluoropyridin-4-ylamino)-4-oxo-4,5-dihydropyrazolo[4,3-c]pyridin-1-yl)piperidine-1-carboxylate] | 0.64 | 5.54
CN(C)S(=O)(=O)c1ccc(Nc2nn(C3(CC#N)CCN(S(=O)(=O)C4CC4)CC3)c3cc[nH]c(=O)c23)cc1 [Example 14-2, 4-((1-(4-(cyanomethyl)-1-(cyclopropylsulfonyl)piperidin-4-yl)-4-oxo-4,5-dihydro-1H-pyrazolo[4,3-c]pyridin-3-yl)amino)-N,N-dimethylbenzenesulfonamide] | 0.06 | 0.12
CS(=O)(=O)c1ccc(Nc2nn(C3(CC#N)CCN(c4cc(C(F)(F)F)ccn4)CC3)c3cc[nH]c(=O)c23)cc1 [Example 15-1, 2-(4-(3-((4-(methylsulfonyl)phenyl)amino)-4-oxo-4,5-dihydro-1H-pyrazolo[4,3-c]pyridin-1-yl)-1-(4-(trifluoromethyl)pyridin-2-yl)piperidin-4-yl)acetonitrile] | 0.16 | 0.37
CS(=O)(=O)c1ccc(Nc2nn(C3(CC#N)CCN(c4ccc(C#N)cn4)CC3)c3cc[nH]c(=O)c23)cc1 [Example 15-2, 6-(4-(cyanomethyl)-4-(3-((4(methylsulfonyl)phenyl)amino)-4-oxo-4,5-dihydro-1H-pyrazolo[4,3-c]pyridin-1-yl)piperidin-1-yl)nicotinonitrile] | 0.04 | 0.04
N#CCC1(n2nc(Nc3ccc(S(=O)(=O)C(F)F)cc3)c3c(=O)[nH]ccc32)CCN(c2ccc(C#N)cn2)CC1 [Example 15-3, 6-(4-(cyanomethyl)-4-(3-((4((difluoromethyl)sulfonyl)phenyl)amino)-4-oxo-4,5-dihydro-1H-pyrazolo[4,3-c]pyridin-1-yl)piperidin-1-yl)nicotinonitrile] | 0.25 | 0.26
CS(=O)(=O)c1ccc(Nc2nn(C3(CC#N)CCN(c4ccc(C(F)(F)F)cn4)CC3)c3cc[nH]c(=O)c23)cc1 [Example 15-4, 2-(4-(3-((4-(methylsulfonyl)phenyl)amino)-4-oxo-4,5-dihydro-1H-pyrazolo[4,3-c]pyridin-1-yl)-1-(5 (trifluoromethyl)pyridin-2-yl)piperidin-4-yl)acetonitrile] | 0.2 | 0.55
